Each structure is given as a SMILES string.

The test system of data set [1] is CEM-DNR (daunorubicin resistant variant of CCRF-CEM). As to the kind of experiment: MTS cytotoxicity assay, CEM-DNR. In kind it is cell-based, human. As to conditions: Homo sapiens, CEM-DNR, 72 h, read-out: IC50 cytotoxic activity CEM-DNR. The gist of the method: (§1)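 Overnight-seeded cells → fourfold serial compound dilutions (DMSO) → 72 h, 37 °C, 5% CO2 → MTS added. Duplicates ×3 biological reps.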
A general note: Formazan colour is commonly taken as a measure of viable cells.

Data set [2] concerns K562-TAX (paclitaxel-resistant variant of K562). As to the kind of experiment: MTS cytotoxicity assay, K562-TAX. As to conditions: Homo sapiens, K562-Tax, 72 h, read-out: IC50 cytotoxic activity K562-TAX. It is filed as cell-based, human. The gist of the method:
as §1

A further data set has as its system U2OS cells. The experiment in a line: Immunofluorescence of microtubules / mitotic spindle. In kind it is cell-based, human. As to conditions: 1 µM, 24-h incubation. The text has this:
In addition, the presence of aster-like tubulin structures indicated the failure in microtubule elongation (Figure 4, ED5). […] The observed intracellular effects of ED3 and ED5 are consistent with data from in vitro assembly assays and cell cycle analyses, thereby strongly supporting the proposed antimitotic mechanisms of these EDs. […] Importantly, cytotoxic IC50 values may vary depending on the duration of exposure to the drug. A more extended exposure could lead to a decrease in the IC50 value, and vice versa. This temporal factor could also contribute to the observed differential sensitivity among the cell lines. The detailed mechanism and the extent to which these cellular and molecular dynamics (MD) contribute to the observed phenomenon might necessitate further investigation and experimentation.
U2OS cells, cultivated on coverslips, underwent a PBS wash and were then fixed in a solution of 3% paraformaldehyde in a buffer containing 10 mM MES, 150 mM NaCl, 5 mM EGTA, 5 mM MgCl2, 5 mM glucose, adjusted to a pH of 6.1. The nuclei were made visible using Hoechst 33342. Subsequently, a 60-min blocking step with 5% goat serum in PBS (SpinChem, Seattle, WA) was followed by a 60-min incubation with α-tubulin (DM1A) mouse monoclonal antibody (Cell Signaling, Danvers, MA) in PBS supplemented with 1% BSA and 0.3% Triton X-100. Visualisation was achieved using Alexa Fluor-488 conjugated anti-mouse antibodies (Life Technologies, Carlsbad, CA). Between each step, the samples underwent a series of three 5-min washes with PBS. Finally, the samples were mounted using Vectashield Mounting Medium with DAPI and imaged utilising a Zeiss spinning disk confocal microscope equipped with CSU-X1 unit (Yokogawa, Musashino, Japan)[10].

The next data set concerns U2OS (osteosarcoma). The experiment in a line: MTS cytotoxicity assay, U2OS. It is filed as cell-based, human. The settings on record: Homo sapiens, U2OS, 72 h, read-out: IC50 cytotoxic activity U2OS. The gist of the method: as §1
Data set [3] is described as follows: MTS cytotoxicity assay, MRC-5. In kind it is cell-based. The settings on record: human; MTS assay, 72-h incubation, mean ± SD of 3 independent experiments; read-out: IC50 cytotoxic activity MRC-5. The gist of the method:
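Cells kept in recommended medium with 10% foetal calf serum and penicillin/streptomycin at 37 °C, 5% CO2, seeded overnight, then exposed to fourfold serial DMSO dilutions of compound for 72 h. Viability was read with MTS reagent; technical duplicates, three biological replicates.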

Data set [4] in a line: MTS cytotoxicity assay, BJ. In kind it is cell-based. The settings on record: human; MTS assay, 72-h incubation, mean ± SD of 3 independent experiments; read-out: IC50 cytotoxic activity BJ. The gist of the method: as §1
Data set [5] concerns A549 (lung adenocarcinoma). As to the kind of experiment: MTS cytotoxicity assay, A549. It is filed as cell-based, human. The settings on record: Homo sapiens, A549, 72 h, read-out: IC50 cytotoxic activity A549. The gist of the method: as §1
The nature of data set [6]: MTS cytotoxicity assay, HUVEC. As to conditions: human; MTS assay, 72-h incubation, mean ± SD of 3 independent experiments; read-out: IC50 cytotoxic activity HUVEC. In kind it is cell-based. The gist of the method:
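MTS read-out after 72 h compound exposure at 37 °C. Cells plated the day before, treated with fourfold serial dilutions from DMSO stocks; duplicate wells, three independent experiments.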

A further data set deals with HUVEC cells. As to the kind of experiment: Endothelial cell tube formation angiogenesis assay. In kind it is cell-based, human. The settings on record: 60 nM, 24 h, Matrigel.
In a further data set the target is T1, porcine brain tubulin (Sus scrofa, UniProt P02550+P02554).
T1 construct: Polymerisation of porcine brain tubulin (>99% purity) was measured; purchased Cytoskeleton, Denver, CO; host or cells: porcine brain (tissue-purified)
Details: method as in PMID 36592487. The settings on record: dimers of the previous study; ref [10]; cited from earlier work.

T1 sequence (P02550 whole entry): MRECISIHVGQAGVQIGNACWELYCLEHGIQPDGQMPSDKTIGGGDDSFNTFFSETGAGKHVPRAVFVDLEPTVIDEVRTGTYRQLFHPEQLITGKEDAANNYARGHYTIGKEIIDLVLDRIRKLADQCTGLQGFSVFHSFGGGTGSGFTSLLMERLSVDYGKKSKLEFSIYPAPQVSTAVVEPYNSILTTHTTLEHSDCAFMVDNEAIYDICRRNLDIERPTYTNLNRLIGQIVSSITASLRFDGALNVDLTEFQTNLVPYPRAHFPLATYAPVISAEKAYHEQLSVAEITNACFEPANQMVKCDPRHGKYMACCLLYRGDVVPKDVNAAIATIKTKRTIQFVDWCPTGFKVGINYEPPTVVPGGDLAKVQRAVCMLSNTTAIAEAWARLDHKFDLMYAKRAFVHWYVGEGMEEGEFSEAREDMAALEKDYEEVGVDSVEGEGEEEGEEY
T1 sequence (P02554 whole entry): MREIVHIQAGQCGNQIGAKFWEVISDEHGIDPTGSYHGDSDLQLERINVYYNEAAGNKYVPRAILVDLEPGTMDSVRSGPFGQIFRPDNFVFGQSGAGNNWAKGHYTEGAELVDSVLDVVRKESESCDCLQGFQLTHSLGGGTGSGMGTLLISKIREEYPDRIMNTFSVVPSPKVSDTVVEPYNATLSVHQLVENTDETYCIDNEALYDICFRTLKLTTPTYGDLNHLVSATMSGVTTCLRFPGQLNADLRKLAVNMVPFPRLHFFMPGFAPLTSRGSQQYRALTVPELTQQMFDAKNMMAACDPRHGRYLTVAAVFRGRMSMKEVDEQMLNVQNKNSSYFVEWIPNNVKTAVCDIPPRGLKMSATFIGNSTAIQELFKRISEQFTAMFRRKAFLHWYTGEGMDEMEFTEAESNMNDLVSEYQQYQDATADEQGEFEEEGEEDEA
Experimental for HUVEC cells: The experiment was performed in 96-well plates pre-coated with 50 μL of growth factor reduced basement membrane matrix Matrigel (Corning, Corning, NY). The coating was set by incubating the plates for 1 h at 37 °C. Subsequently, HUVEC cells were seeded at a density of 15 000 cells per well, and dissolved test substances were added to this layer in a total volume of 100 μL. The assay plates were then incubated for 24 h to facilitate endothelial tube formation. After this incubation, the cells were stained with Hoechst 33342 (Thermo Fisher Scientific, Waltham, MA) to a final concentration of 10 μM and calcein AM (Invitrogen, Carlsbad, CA) to a final concentration of 2 µg/mL for 30 min, followed by visualisation in DIC and fluorescent modes using a Zeiss fluorescent microscope (Oberkochen, Germany).

As a reminder, the IC50 is the concentration that gives 50% inhibition. For `COc1cc2c(c(OC)c1OC)-c1ccc(OC)c(=O)cc1[C@@H](NC(C)=O)CC2` [Colchicine, reference compound], the IC50 in [1] turned out to be 1020 ± 210 nM; in data set [2], 1830 ± 190 nM; in the data set with U2OS (osteosarcoma) it was 28 ± 14 nM; in data set [5], 47 ± 28 nM. Also, the “microtubule organisation in mitotic cells (in words)” value in the data set on U2OS cells is “complete absence of the spindle with diffuse tubulin signal”. For the same compound, the IC50 at 72 h is 55 ± 29 nM in data set [3], over 50000 nM in data set [4] and under 12.2 nM in data set [6]. The “endothelial cell tube formation (in words)” value with HUVEC cells was “prevented endothelial cell tube formation”.

Take `C[C@]12CC[C@@H]3c4ccc(O)cc4CC[C@H]3[C@@H]1CC[C@@]2(O)c1cn(CCCCCn2cc([C@]3(O)CC[C@H]4[C@@H]5CCc6cc(O)ccc6[C@H]5CC[C@@]43C)nn2)nn1` [D1]: the Tubulin polymerisation inhibition on porcine brain tubulin is 65.0%.

With `C[C@]12CC[C@@H]3c4ccc(O)cc4CC[C@H]3[C@@H]1CC[C@@]2(O)c1cn(CCOCCn2cc([C@]3(O)CC[C@H]4[C@@H]5CCc6cc(O)ccc6[C@H]5CC[C@@]43C)nn2)nn1` [D2], the Tubulin polymerisation inhibition at porcine brain tubulin is 79.1%.

`C[C@]12CC[C@@H]3c4ccc(O)cc4CC[C@H]3[C@@H]1CC[C@@]2(O)c1cn(CCNCCn2cc([C@]3(O)CC[C@H]4[C@@H]5CCc6cc(O)ccc6[C@H]5CC[C@@]43C)nn2)nn1` [D3]: the Tubulin polymerisation inhibition on porcine brain tubulin is listed as 36.8%.

Consider `COc1cc(CN(CCn2cc([C@]3(O)CC[C@H]4[C@@H]5CCc6cc(O)ccc6[C@H]5CC[C@@]43C)nn2)CCn2cc([C@]3(O)CC[C@H]4[C@@H]5CCc6cc(O)ccc6[C@H]5CC[C@@]43C)nn2)ccc1O` [D9], for which the Tubulin polymerisation inhibition on porcine brain tubulin is reported as 49.6%.

Regarding `Cc1ccc(C(=O)Nc2ccc(S(=O)(=O)O)c3cc(S(=O)(=O)O)cc(S(=O)(=O)O)c23)cc1NC(=O)c1cccc(NC(=O)Nc2cccc(C(=O)Nc3cc(C(=O)Nc4ccc(S(=O)(=O)O)c5cc(S(=O)(=O)O)cc(S(=O)(=O)O)c45)ccc3C)c2)c1` [suramine], the “endothelial cell tube formation (in words)” value in the data set on HUVEC cells is “prevented endothelial cell tube formation”.
